From article PMC7288171, “Synergistic Effects of Thiosemicarbazides with Clinical Drugs against S. aureus” (Molecules, 2020)
In brackets after ≈: the same amount, converted by molar mass.

Key:
[1] = system: B. cereus ATCC 10876; design: method as in PMID 25897586; conditions: B. c. ATCC 10876; compounds 1–5; cited from earlier work
[2] = system: B. subtilis ATCC 6633; design: method as in PMID 25897586; conditions: B. s. ATCC 6633; compounds 1–5; cited from earlier work
[3] = system: HeLa cell line; assay: Cytotoxicity (earlier study); format: cell-based; conditions: HeLa IC30 / MIC S. aureus ATCC 25923
Source text: (§1) For the compound with the best solubility (2), its cytotoxicity against L929 and HeLa cells was presented previously. The cytotoxicity was expressed as rigorous IC30 values, defined as the highest dilutions of test samples that cause 30% or greater destruction of cells.

[4] = system: L929 cell line; assay: Cytotoxicity (earlier study); format: cell-based; conditions: L929 IC30 / MIC S. aureus ATCC 25923
Source text: as §1

[5] = system: S. aureus ATCC 6538; design: method as in PMID 25897586; conditions: S. a. ATCC 6538; compounds 1–5; cited from earlier work
[6] = MTT cytotoxicity assay; format: cell-based, human; conditions: human, Hs27 foreskin fibroblast cells (ATCC CRL-1634), 25 µg/mL, 24 h, vehicle control = 100%
[7] = system: human foreskin fibroblast Hs27 cells (CRL-1634); assay: MTT cytotoxicity assay; format: cell-based; conditions: Homo sapiens, 24 h of treatment
[8] = system: L929 cell line; design: method as in PMID 25897586; conditions: IC30 = 30% or greater destruction of cells; cited from earlier work
[9] = system: HeLa cell line; design: method as in PMID 25897586; conditions: IC30 = 30% or greater destruction of cells; cited from earlier work
[10] = system: S. aureus ATCC 25923; assay: Checkerboard broth dilution synergy assay; format: cell-based
Procedure, shortened: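 Checkerboard broth microdilution against S. aureus ATCC 25923 paired each thiosemicarbazide with amoxicillin, gentamicin, levofloxacin, linezolid or vancomycin. FICI is the sum of each drug's MIC in combination divided by its MIC alone: ≤0.5 synergy, 0.5–1 additive, 1–4 indifferent, ≥4 antagonism.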

[11] = system: MSSA-3; assay: MIC, clinical isolate of S. aureus; format: cell-based; conditions: Staphylococcus aureus; clinical isolate MSSA-3; read-out: MIC
Procedure, shortened: (§2)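 Thiosemicarbazides were tested against a Gram-positive panel of ATCC reference strains and against clinical S. aureus isolates from a university hospital collection. Amoxicillin, gentamicin, levofloxacin, linezolid and vancomycin were run alongside as reference antibiotics.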

[12] = system: MRSA-1; assay: MIC, clinical isolate of S. aureus; format: cell-based; conditions: Staphylococcus aureus; clinical isolate MRSA-1; read-out: MIC
Procedure, shortened: as §2

[13] = system: MSSA-4; assay: MIC, clinical isolate of S. aureus; format: cell-based; conditions: Staphylococcus aureus; clinical isolate MSSA-4; read-out: MIC
Procedure, shortened: as §2

[14] = system: MSSA-1; assay: MIC, clinical isolate of S. aureus; format: cell-based; conditions: Staphylococcus aureus; clinical isolate MSSA-1; read-out: MIC
Procedure, shortened: as §2

[15] = system: MSSA-2; assay: MIC, clinical isolate of S. aureus; format: cell-based; conditions: Staphylococcus aureus; clinical isolate MSSA-2; read-out: MIC
Procedure, shortened: as §2

[16] = system: S. epidermidis ATCC 12228; design: method as in PMID 25897586; conditions: S. e. ATCC 12228; compounds 1–5; cited from earlier work
[17] = system: M. luteus ATCC 10240; design: method as in PMID 25897586; conditions: M. l. ATCC 10240; compounds 1–5; cited from earlier work
[18] = system: S. aureus ATCC 25923; design: method as in PMID 25897586; conditions: S. a. ATCC 25923; compounds 1–5; cited from earlier work

MIC [11]: > 500 µg/mL
MIC [12]: 500 µg/mL (≈ 1310 µM)
MIC [13]: 500 µg/mL (≈ 1310 µM)
MIC [14]: > 500 µg/mL
MIC [15]: > 500 µg/mL
Structure (SMILES): Cc1cccc(C(=O)NC(=S)NNC(=O)c2cccc(Cl)c2Cl)c1 [compound 2]
MIC [1]: 1.95 µg/mL (≈ 5.1 µM)
MIC [2]: 0.49 µg/mL (≈ 1.28 µM)
selectivity index SI (SI = IC30/MIC) [3]: 3.97
selectivity index SI (SI = IC30/MIC) [4]: 3.94
MIC [5]: 7.81 µg/mL (≈ 20.4 µM)
viability at 24 h, 25 µg/mL [6]: 76.7%
IC50 [7]: > 25 µg/mL
IC30 [8]: 30.78 µg/mL (≈ 80.5 µM)
IC30 [9]: 30.97 µg/mL (≈ 81 µM)
interaction in combination ([10]; combination with amoxicillin): additive
interaction in combination ([10]; combination with gentamicin): no interactions
interaction in combination ([10]; combination with levofloxacin): no interactions
interaction in combination ([10]; combination with linezolid): synergistic
interaction in combination ([10]; combination with vancomycin): no interactions
MIC [16]: 3.91 µg/mL (≈ 10.2 µM)
MIC [17]: 0.98 µg/mL (≈ 2.56 µM)
MIC [18]: 7.81 µg/mL (≈ 20.4 µM)
